Results on three compounds are retold here after patent US5766896A, “Method of producing iodine by use of a copper containing oxidase enzyme” (Novo Nordisk Biotech Inc., priority 1994, dated 1998).

The term Km denotes the concentration of substrate that gives half-maximal velocity.

The target of assay [1] is T1, recombinant Myceliophthora thermophila laccase (r-MtL) (Thermothelomyces thermophilus, UniProt G2QG31).
T1 sequence (G2QG31 48-602): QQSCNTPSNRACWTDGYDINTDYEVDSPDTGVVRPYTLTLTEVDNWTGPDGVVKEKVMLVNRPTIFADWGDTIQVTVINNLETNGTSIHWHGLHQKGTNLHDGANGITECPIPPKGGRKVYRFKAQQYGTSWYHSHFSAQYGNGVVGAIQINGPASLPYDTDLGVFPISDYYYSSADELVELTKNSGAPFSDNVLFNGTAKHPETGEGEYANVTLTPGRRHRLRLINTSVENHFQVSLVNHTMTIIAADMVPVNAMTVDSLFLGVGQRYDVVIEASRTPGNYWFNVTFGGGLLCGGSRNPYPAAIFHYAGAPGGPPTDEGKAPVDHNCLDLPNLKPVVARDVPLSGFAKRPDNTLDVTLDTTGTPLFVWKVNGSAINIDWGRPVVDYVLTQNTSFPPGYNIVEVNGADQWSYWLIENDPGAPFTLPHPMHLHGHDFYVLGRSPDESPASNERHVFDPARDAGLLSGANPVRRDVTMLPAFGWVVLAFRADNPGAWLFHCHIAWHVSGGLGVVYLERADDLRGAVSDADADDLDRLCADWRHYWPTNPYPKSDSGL
The experiment in a line: r-MtL-catalyzed ABTS oxidation. It counts as biochemical. As for the experimental part: (§1) Enzymatic assays for determining oxidation of I^- are conducted in B & R buffer containing from 1-20 nM MtL (subunit concentration) and 10 to 200 mM Nal at 20° C. for 5-10 minutes. The extinction coefficient of 26 mM^-1 cm^-1 is used to calculate rate. Oxidation of I^- is spectrally monitored at 340 or 353 nm and the spectrum of the oxidation product is found identical to that of I3 -(Hosoya, Biochem. (Tokyo) 53: 381, 1963). Kinetic parameters are extracted by a non-linear regression fitting (Prism, GraphPad) of rate and concentration data to the equation of rate=Vmax *[substrate]/Km +[substrate].

The subject of assay [2] is tyrosinase (mushroom). The settings on record: pH 2.7. An excerpt:
Chemicals used as buffers and substrates are commercial products of at least reagent grade. Ascorbate oxidase (Cucurbita species), ceruloplasmin (porcine plasma), bilirubin oxidase (Myrothecium verrucaria) and tyrosinase (mushroom) are purchased from Sigma and used as received. The contents of the enzymes in lyophilized powder or solution are confirmed by uv-visible absorption and published extinction coefficients. The stated activity of ascorbate oxidase is confirmed with ascorbic acid.
The extinction coefficient of 36 mM^-1 cm^-1 is used to calculate the rate. Spectroscopic assays are conducted on either a spectrophotometer (Shimadzu UV160) or a microplate reader (Molecular Devices). Britton & Robinson (B & R) buffers are prepared according to a standard protocol (Quelle, Biochemisches Taschenbuch, H. M. Raven, II. Teil, S.93 u. 102, 1964).

Assay [3] deals with T1, recombinant Myceliophthora thermophila laccase (r-MtL). In words: r-MtL-catalyzed I^- oxidation. It is filed as biochemical. The settings on record: pH 3.4. On the procedure:
as §1

For assay [4], the system named is tyrosinase (mushroom). The experiment in a line: tyrosinase-catalyzed I^- oxidation. It counts as biochemical. The settings on record: optimal pH of 2.7. As for the experimental part:
as §1
(§2) Ascorbate oxidase, ceruloplasmin, bilirubin oxidase, and tyrosinase at concentrations up to μM level are also tested under similar conditions for I^- oxidation catalysis.

Assay [5] addresses T2, bilirubin oxidase (Myrothecium verrucaria) (Albifimbria verrucaria, UniProt Q12737).
T2 construct: purchased Sigma
T2 sequence (Q12737 39-572): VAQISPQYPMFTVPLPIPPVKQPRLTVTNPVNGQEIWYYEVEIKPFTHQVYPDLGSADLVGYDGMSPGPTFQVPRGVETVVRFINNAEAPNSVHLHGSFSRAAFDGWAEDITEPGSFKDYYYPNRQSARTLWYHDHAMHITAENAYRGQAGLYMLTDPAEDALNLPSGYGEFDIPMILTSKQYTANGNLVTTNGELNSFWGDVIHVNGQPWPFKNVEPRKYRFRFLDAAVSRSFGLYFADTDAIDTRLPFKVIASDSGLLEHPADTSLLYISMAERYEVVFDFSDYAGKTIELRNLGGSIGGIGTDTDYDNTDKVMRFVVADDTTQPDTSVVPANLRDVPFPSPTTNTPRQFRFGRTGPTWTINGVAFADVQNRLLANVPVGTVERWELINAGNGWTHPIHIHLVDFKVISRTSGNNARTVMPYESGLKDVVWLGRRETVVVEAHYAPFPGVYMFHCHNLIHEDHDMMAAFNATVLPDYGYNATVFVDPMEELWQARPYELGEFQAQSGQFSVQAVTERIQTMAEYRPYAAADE
In words: bilirubin oxidase-catalyzed I^- oxidation. It counts as biochemical. The settings on record: optimal pH of 4.1. As for the experimental part:
as §1, §2

The next assay has as its target Myceliophthora laccase (Thermothelomyces thermophilus, UniProt G2QG31). The experiment in a line: chloride inhibition of Myceliophthora laccase. It is filed as biochemical. The settings on record: read-out: inhibition constant (chloride).

Like-named read-outs stand apart in the source and are kept apart here.

Take `CCn1c(=NN=c2sc3cc(S(=O)(=O)O)ccc3n2CC)sc2cc(S(=O)(=O)O)ccc21` [ABTS, 2,2'-azinobis-(3-ethylbenzthiazoline-6-sulfonic acid)]: in assay [1], the “Km of ABTS, fold smaller in comparison with I^-” value was ~ 10^3 fold and the “Vmax of ABTS, fold larger in comparison with I^-” value is given as ~ 10^3 fold. In addition, the “Vmax (ABTS oxidation)” value with tyrosinase (mushroom) [2] came out at 3.1±0.1 turnover per minute. In addition, the Km in the assay with tyrosinase (mushroom) [2] (read-out: Km (ABTS)) was 0.18 ± 0.01 mM.
For the compound `I` [I^-, iodide], the “Vmax (I^- oxidation)” value is recorded as 2.7±0.2 turnover per minute in assay [3], “ca. 0.1 turnover per minute” in the assay on tyrosinase (mushroom) [4] and 1.7±0.1 turnover per minute in assay [5]. Further, the Km with tyrosinase (mushroom) [4] was about 100 mM.
Regarding `Cl` [chloride], the Ki at Myceliophthora laccase was about 70 mM.
